This note sets out measurements from patent US8546377B2 (AbbVie Inc., priority 2009, dated 2013).

pEC50: −log10 of the molar value. Like-named read-outs stand apart in the source and are kept apart here.

For one test, the target named is T1, 5HT2B receptors (Homo sapiens, UniProt P41595).
T1 construct: expressed in transfected cells; host or cells: CHO-K1 cells
As to the kind of experiment: Human 5-HT2B functional assay in CHO-K1 cells (calcium flux, FLIPR). The test is classed as cell-based. To be noted: for EC50: CHO-K1 cells over-expressing 5HT2B, calcium flux, read-out: EC50 (μM), 5-HT2B Agonist Activity. The gist of the method: (§1)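 EC50 came from a 4-parameter logistic fit, with Emax expressed relative to serotonin, of intracellular Ca2+ rises read on FLIPR at 480/530 nm, 25° C, over 3 min. Compounds ran from 10 μM in six 1:10 steps (0.2% DMSO) on serum-starved CHO-K1 transfectants pre-loaded 60 min with Ca4 dye and probenecid.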
(In general: Calcium flux is commonly read through the fluorescence of an indicator in the cells.)

Another test addresses T2, 5HT2C receptors (Homo sapiens, UniProt P28335).
T2 sequence (P28335 33-458): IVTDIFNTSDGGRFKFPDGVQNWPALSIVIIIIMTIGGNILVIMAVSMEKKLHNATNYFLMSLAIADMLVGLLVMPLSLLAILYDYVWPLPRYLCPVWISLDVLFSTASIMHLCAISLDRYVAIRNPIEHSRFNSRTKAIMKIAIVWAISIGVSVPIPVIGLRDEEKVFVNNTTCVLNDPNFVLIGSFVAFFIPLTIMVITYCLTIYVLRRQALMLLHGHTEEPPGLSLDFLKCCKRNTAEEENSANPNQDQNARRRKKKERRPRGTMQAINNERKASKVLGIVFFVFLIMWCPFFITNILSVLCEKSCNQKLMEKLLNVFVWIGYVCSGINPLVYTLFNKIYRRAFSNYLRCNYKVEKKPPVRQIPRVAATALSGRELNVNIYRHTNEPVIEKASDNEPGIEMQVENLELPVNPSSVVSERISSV
Kind of test: Human 5-HT2C functional assay in CHO-K1 cells (calcium flux, FLIPR). The test is classed as cell-based. Also noted: expressed in transfected cells; host or cells: CHO-K1 cells. To be noted: for EC50: CHO-K1 cells over-expressing 5HT2C, calcium flux, read-out: EC50 (μM), 5-HT2c Agonist Activity. The gist of the method:
as §1

[1] abbreviates: CHO-K1 cells, percentage relative to the effect of serotonin, read-out: Emax (%), 5-HT2B Agonist Activity.
Setting [2] is: CHO-K1 cells, percentage relative to the effect of serotonin, read-out: Emax (%), 5-HT2c Agonist Activity.
Setting [3] is: CHO-K1, read-out: Emax (%), 5-HT2c Agonist Activity, CHO-K1 cells, percentage relative to the effect of serotonin.
The mark [4] stands for this setting: CHO-K1, read-out: Emax (%), 5-HT2B Agonist Activity.

T1 sequence (P41595 whole entry): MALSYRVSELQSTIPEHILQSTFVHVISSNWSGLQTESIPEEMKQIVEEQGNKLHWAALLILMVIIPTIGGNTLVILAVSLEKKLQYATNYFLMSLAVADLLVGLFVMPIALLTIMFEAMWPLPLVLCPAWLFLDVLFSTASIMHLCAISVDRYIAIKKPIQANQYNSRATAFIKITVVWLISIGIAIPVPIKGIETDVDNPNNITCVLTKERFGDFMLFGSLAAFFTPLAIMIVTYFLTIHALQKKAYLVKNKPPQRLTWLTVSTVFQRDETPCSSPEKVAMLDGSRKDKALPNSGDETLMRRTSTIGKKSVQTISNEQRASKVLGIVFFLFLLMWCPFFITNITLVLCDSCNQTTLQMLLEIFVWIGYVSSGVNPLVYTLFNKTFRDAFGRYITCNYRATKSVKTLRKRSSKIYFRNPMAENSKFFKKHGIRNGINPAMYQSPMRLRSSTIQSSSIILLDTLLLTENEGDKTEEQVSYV

One may read the EC50 as the midpoint of the concentration-response curve. Usually Emax stands for the maximal effect, on the per cent scale that the assay sets. `C[C@H](Oc1ccc2c(c1)N1CCNCC1CC(=O)N2)c1ccccc1` (stereo partly drawn) [Example 154, 10-[(1S)-1-phenylethoxy]-1,2,3,4,4a,5-hexahydropyrazino[1,2-a][1,5]benzodiazepin-6(7H)-one]: the EC50 worked out at 0.7 µM on 5HT2B receptors and 0.103 µM at 5HT2C receptors. Moreover, the Emax is 44% on 5HT2B receptors (setting [1]) and greater than 120% at 5HT2C receptors (setting [2]).
What is called pEC50 is −log10 of the EC50, conventionally taken in molar units. Consider `CN1CCN2c3cc(Cl)ccc3OCC[C@H]2C1` [Example 188, (4aS)-10-chloro-3-methyl-2,3,4,4a,5,6-hexahydro-1H-pyrazino[2,1-d][1,5]benzoxazepine], for which the negative-log EC50 (pEC50) at 5HT2B receptors was less than 5.00; at 5HT2C receptors, 8.00. Further, at 5HT2C receptors (setting [3]), the Emax stood at 70%.
As for `O=C1CC2CNCCN2c2cc(OCCc3cccc(F)c3)ccc2N1` (centres unmarked) [Example 152, 10-[2-(3-fluorophenyl)ethoxy]-1,2,3,4,4a,5-hexahydropyrazino[1,2-a][1,5]benzodiazepin-6(7H)-one], the EC50 at 5HT2B receptors is greater than 10 µM; on 5HT2C receptors, 0.01 µM. The Emax at 5HT2C receptors (setting [2]) stood at 100%.
Turning to `FCCN1CCN2c3cccc(F)c3OCC[C@H]2C1` [Example 245, (4aS)-8-fluoro-3-(2-fluoroethyl)-2,3,4,4a,5,6-hexahydro-1H-pyrazino[2,1-d][1,5]benzoxazepine], the Emax was 20% at 5HT2B receptors (setting [4]) and 95% at 5HT2C receptors (CHO-K1, read-out: Emax (%), 5-HT2c Agonist Activity). In addition, the EC50 came to 0.2 µM at 5HT2B receptors and 0.009 µM on 5HT2C receptors.
As for `CC(C)Oc1cccc(-c2ccc3c(c2)N2CCNCC2CC(=O)N3)c1` (centres unmarked) [Example 94, 10-(3-isopropoxyphenyl)-1,2,3,4,4a,5-hexahydropyrazino[1,2-a][1,5]benzodiazepin-6(7H)-one], the EC50 on 5HT2B receptors is greater than 10 µM; on 5HT2C receptors, 0.008 µM. In addition, the Emax on 5HT2C receptors (setting [2]) was greater than 120%.
`O=C1C[C@H]2CNCCN2c2cccc(Cl)c2N1` [Example 148, (4aS)-8-chloro-1,2,3,4,4a,5-hexahydropyrazino[1,2-a][1,5]benzodiazepin-6(7H)-one]: the pEC50 was less than 5.00 on 5HT2B receptors and 8.15 on 5HT2C receptors. Moreover, at 5HT2C receptors (setting [3]), the Emax is greater than 120%.
`O=C1CC2CNCCN2c2cc(-c3csc4ccccc34)ccc2N1` (centres unmarked) [Example 66, 10-(1-benzothiophen-3-yl)-1,2,3,4,4a,5-hexahydropyrazino[1,2-a][1,5]benzodiazepin-6(7H)-one]: the EC50 is greater than 10 µM at 5HT2B receptors and 0.09 µM at 5HT2C receptors. On 5HT2C receptors (setting [2]), the Emax was found to be 100%.
In the same order, the values of `O=C1CC2CNCCN2c2cc(OCCc3ccccc3)ccc2N1` (centres unmarked) [Example 158, 10-(2-phenylethoxy)-1,2,3,4,4a,5-hexahydropyrazino[1,2-a][1,5]benzodiazepin-6(7H)-one] are greater than 10 µM, 0.025 µM and greater than 120%.
As for `CC(O)c1ccc(-c2cccc3c2OCC[C@H]2CNCCN32)cc1` (stereo partly drawn) [Example 234, 1-{4-[(4aS)-2,3,4,4a,5,6-hexahydro-1H-pyrazino[2,1-d][1,5]benzoxazepin-8-yl]phenyl}ethanol], the EC50 at 5HT2B receptors turned out to be 0.3 µM; on 5HT2C receptors, 0.01 µM. For the same compound, the Emax at 5HT2B receptors (setting [1]) worked out at 10%; at 5HT2C receptors (setting [2]) it was 105%.
Turning to `CCN1C(=O)CC2CN(C)CCN2c2ccc(Cl)cc21` (centres unmarked) [Example 78, 9-chloro-7-ethyl-3-methyl-1,2,3,4,4a,5-hexahydropyrazino[1,2-a][1,5]benzodiazepin-6(7H)-one], the values for the EC50 at 5HT2B receptors and on 5HT2C receptors were greater than 10 µM and 1 µM, respectively. Moreover, the Emax at 5HT2C receptors (setting [2]) worked out at 50%.
For `O=C1CC2CNCCN2c2cc(-c3cccc(F)c3)ccc2N1` (centres unmarked) [Example 61, 10-(3-fluorophenyl)-1,2,3,4,4a,5-hexahydropyrazino[1,2-a][1,5]benzodiazepin-6(7H)-one] the same measures were greater than 10 µM, 0.1 µM and greater than 120%.
As to `O=C1C[C@H]2CNCCN2c2cc(OCCc3cccc(F)c3)ccc2N1` [Example 164, (4aS)-10-[2-(3-fluorophenyl)ethoxy]-1,2,3,4,4a,5-hexahydropyrazino[1,2-a][1,5]benzodiazepin-6(7H)-one], the EC50 is greater than 10 µM at 5HT2B receptors and 0.007 µM on 5HT2C receptors. The Emax at 5HT2C receptors (setting [2]) is greater than 120%.
`O=C1CC2CNCCN2c2cc(Cc3ccccc3)ccc2N1` (centres unmarked) [Example 185, 10-benzyl-1,2,3,4,4a,5-hexahydropyrazino[1,2-a][1,5]benzodiazepin-6(7H)-one]: the EC50 is greater than 10 µM at 5HT2B receptors and 0.03 µM on 5HT2C receptors. The Emax at 5HT2C receptors (setting [2]) is greater than 120%.
For `O=C1CC2CNCCN2c2cc(CCc3ccccc3F)ccc2N1` (centres unmarked) [Example 144, 10-[2-(2-fluorophenyl)ethyl]-1,2,3,4,4a,5-hexahydropyrazino[1,2-a][1,5]benzodiazepin-6(7H)-one], the concentration for a half-maximal effect (EC50) was greater than 10 µM on 5HT2B receptors and 0.002 µM on 5HT2C receptors. Moreover, the Emax on 5HT2B receptors (setting [1]) is 50%; at 5HT2C receptors (setting [2]), greater than 120%.
For the compound `O=C1CC2CNCCN2c2cc(CCc3cc(F)cc(F)c3)ccc2N1` (centres unmarked) [Example 147, 10-[2-(3,5-difluorophenyl)ethyl]-1,2,3,4,4a,5-hexahydropyrazino[1,2-a][1,5]benzodiazepin-6(7H)-one], the concentration giving a half-maximal response (EC50) is greater than 10 µM at 5HT2B receptors and 0.01 µM on 5HT2C receptors. The maximum response (Emax) on 5HT2C receptors (setting [2]) is greater than 120%.
For the compound `O=C1CC2CNCCN2c2cc(-c3ccccc3-c3ccccc3)ccc2N1` (centres unmarked) [Example 64, 10-(biphenyl-2-yl)-1,2,3,4,4a,5-hexahydropyrazino[1,2-a][1,5]benzodiazepin-6(7H)-one], the EC50 at 5HT2B receptors is 1 µM; at 5HT2C receptors, 0.03 µM. Besides, the Emax came out at 15% at 5HT2B receptors (setting [1]) and 110% on 5HT2C receptors (setting [2]).
In the case of `COc1ccc2c(c1)OCC[C@H]1CNCCN21` [Example 243, (4aS)-9-methoxy-2,3,4,4a,5,6-hexahydro-1H-pyrazino[2,1-d][1,5]benzoxazepine], the pEC50 on 5HT2B receptors is less than 5.00; on 5HT2C receptors it was 7.30. For the same compound, the “Emax (%), 5-HT2c Agonist Activity” value on 5HT2C receptors (CHO-K1 cells, percentage relative to the effect of serotonin) is recorded as 55%.
As to `CN1CCN2c3cccc(F)c3NC(=O)C[C@H]2C1` [Example 88, (4aS)-8-fluoro-3-methyl-1,2,3,4,4a,5-hexahydropyrazino[1,2-a][1,5]benzodiazepin-6(7H)-one], the pEC50 was less than 5.00 on 5HT2B receptors and 7.52 on 5HT2C receptors. Besides, on 5HT2C receptors (setting [3]), the Emax is greater than 120%.
For `O=C1CC2CNCCN2c2cc(/C=C/c3cc(F)cc(F)c3)ccc2N1` (centres unmarked) [Example 143, 10-[(E)-2-(3,5-difluorophenyl)vinyl]-1,2,3,4,4a,5-hexahydropyrazino[1,2-a][1,5]benzodiazepin-6(7H)-one], the EC50 at 5HT2B receptors came to 1 µM; at 5HT2C receptors, 0.02 µM. The Emax was 60% at 5HT2B receptors (setting [1]) and greater than 120% on 5HT2C receptors (setting [2]).
Take `O=C1CC2CNCCN2c2cc(-c3ccc(F)cc3)ccc2N1` (centres unmarked) [Example 74, 10-(4-fluorophenyl)-1,2,3,4,4a,5-hexahydropyrazino[1,2-a][1,5]benzodiazepin-6(7H)-one]: the EC50 was greater than 10 µM at 5HT2B receptors and 0.07 µM at 5HT2C receptors. Further, the Emax at 5HT2C receptors (setting [2]) is 100%.
As to `O=C1CC2CNCCN2c2cc(OCc3ccccc3)ccc2N1` (centres unmarked) [Example 149, 10-(benzyloxy)-1,2,3,4,4a,5-hexahydropyrazino[1,2-a][1,5]benzodiazepin-6(7H)-one], the EC50 at 5HT2B receptors worked out at 1 µM; at 5HT2C receptors, 0.02 µM. The figures for the Emax on 5HT2B receptors (setting [1]) and on 5HT2C receptors (setting [2]) were 30% and greater than 120%, respectively.
With `CC(O)c1ccc(-c2ccc3c(c2)OCC[C@H]2CNCCN32)cc1` (stereo partly drawn) [Example 228, 1-{4-[(4aS)-2,3,4,4a,5,6-hexahydro-1H-pyrazino[2,1-d][1,5]benzoxazepin-9-yl]phenyl}ethanol], the figures for the EC50 on 5HT2B receptors and on 5HT2C receptors were greater than 10 µM and 0.009 µM, respectively. For the same compound, the Emax at 5HT2C receptors (setting [2]) turned out to be 100%.
Regarding `Cc1cccc2c1OCC[C@H]1CN(C)CCN21` [Example 242, (4aS)-3,8-dimethyl-2,3,4,4a,5,6-hexahydro-1H-pyrazino[2,1-d][1,5]benzoxazepine], the pEC50 is less than 5.00 at 5HT2B receptors and 8.70 on 5HT2C receptors. The Emax on 5HT2C receptors (setting [3]) is 80%.
On to `O=C1NC[C@@H]2CNCC[C@@H]2c2ccccc21` (relative stereo) [Example 180, cis-1,2,3,4,4a,5,6,11b-octahydro-7H-pyrido[3,4-d][2]benzazepin-7-one], for which the EC50 at 5HT2B receptors was greater than 10 µM; at 5HT2C receptors, 0.2 µM. In addition, on 5HT2C receptors (setting [3]), the maximal response (Emax) was greater than 120%.
Take `Clc1ccc2c(c1)N1CCNC[C@@H]1CCO2` [Example 140, (4aS)-10-chloro-2,3,4,4a,5,6-hexahydro-1H-pyrazino[2,1-d][1,5]-benzoxazepine]: the pEC50 is 7.52 on 5HT2B receptors and 9.30 on 5HT2C receptors. In addition, the Emax is 60% on 5HT2B receptors (setting [4]) and greater than 120% at 5HT2C receptors (setting [3]).
